# Assay results published in ChEMBL document CHEMBL1201862, “PubChem BioAssay data set” (2004).
#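 Dose response: 5 concentrations. Exposure: 48 h. Format: 96-well plates. Endpoint: linear interpolation; highest concentration if not reached. At the GI50, growth is halved.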 Activity calls are given as the source filed them. Rule as the data show it: active = GI50 up to about 1.1 µM and inactive = higher.
# Experiments:
# Assay in all cases: inhibition of tumour cell growth, NCI panel, 48 h
# LOX IMVI = system: LOX IMVI
# OVCAR-4 = system: OVCAR-4
# DMS-114 = system: DMS-114
# COLO 205 = system: COLO 205
# UACC-257 = system: UACC-257
# SK-MEL-28 = system: SK-MEL-28
# MOLT-4 = system: MOLT-4
# HCC 2998 = system: HCC 2998
# HCT-15 = system: HCT-15
# NCI-H460 = system: NCI-H460
# KM12 = system: KM12
# CAKI-1 = system: CAKI-1
# SW-620 = system: SW-620
# U-251 = system: U-251
# EKVX = system: EKVX
# BT-549 = system: BT-549
# Hs-578T = system: Hs-578T
# T47D = system: T47D
# MCF7 = system: MCF7
# MDA-MB-231 = system: MDA-MB-231
SMILES,GI50 (LOX IMVI),GI50 (OVCAR-4),GI50 (DMS-114),GI50 (COLO 205),GI50 (UACC-257),GI50 (SK-MEL-28),GI50 (MOLT-4),GI50 (HCC 2998),GI50 (HCT-15) [µM],GI50 (NCI-H460),GI50 (KM12),GI50 (CAKI-1),GI50 (SW-620),GI50 (U-251),GI50 (EKVX),GI50 (BT-549),GI50 (Hs-578T),GI50 (T47D),GI50 (MCF7),GI50 (MDA-MB-231)
CCCCCCCCCCCC(=O)c1c(O)cccc1O,18.8 µM (inactive),20.4 µM (inactive),19.2 µM (inactive),15.3 µM (inactive),16.7 µM (inactive),17.8 µM (inactive),20.4 µM (inactive),19.7 µM (inactive),18.6,21.7 µM (inactive),16 µM (inactive),23.4 µM (inactive),19.1 µM (inactive),19.3 µM (inactive),19.1 µM (inactive),–,–,–,–,–
Cc1c(C(=O)Nc2ccc(Cl)c(C(F)(F)F)c2)oc2cc(O)ccc2/c1=N\NC(N)=S,> 100 µM (inactive),> 100 µM (inactive),> 100 µM (inactive),> 100 µM (inactive),> 100 µM (inactive),> 100 µM (inactive),> 100 µM (inactive),> 100 µM (inactive),> 100,> 100 µM (inactive),> 100 µM (inactive),> 100 µM (inactive),> 100 µM (inactive),> 100 µM (inactive),> 100 µM (inactive),–,–,–,–,–
COc1cc(/C=N\c2ccc(C(C)C)cc2)cc(OC)c1OC,> 54.7 µM (inactive),> 100 µM (inactive),49.5 µM (inactive),> 73.6 µM (inactive),> 100 µM (inactive),> 100 µM (inactive),> 100 µM (inactive),–,> 55.5,97.3 µM (inactive),> 100 µM (inactive),> 100 µM (inactive),> 37 µM (inactive),> 100 µM (inactive),> 100 µM (inactive),–,–,–,–,–
CCC1c2cc3n(c(=O)c2COC1O)Cc1c-3nc2ccccc2c1Cl (stereo not given),18.6 µM (inactive),> 65.5 µM (inactive),49.4 µM (inactive),> 89.5 µM (inactive),> 100 µM (inactive),> 100 µM (inactive),3.28 µM (inactive),44.7 µM (inactive),> 94.2,3.89 µM (inactive),> 100 µM (inactive),23 µM (inactive),> 100 µM (inactive),9.86 µM (inactive),66.1 µM (inactive),–,–,–,–,–
Clc1ccc(C2=Nc3ccccc3SC(c3cccs3)C2)cc1 (stereo not given),7.19 µM (inactive),14 µM (inactive),15.2 µM (inactive),17.4 µM (inactive),15.7 µM (inactive),17.6 µM (inactive),20.9 µM (inactive),17 µM (inactive),14,15 µM (inactive),10.7 µM (inactive),15.5 µM (inactive),13.1 µM (inactive),11.8 µM (inactive),17.5 µM (inactive),–,–,–,–,–
COc1nc(OC)c2c(=O)oc(-c3ccccc3)cc2n1,–,> 100 µM (inactive),> 100 µM (inactive),–,> 100 µM (inactive),> 100 µM (inactive),> 100 µM (inactive),> 100 µM (inactive),> 100,–,> 100 µM (inactive),> 100 µM (inactive),> 100 µM (inactive),> 100 µM (inactive),> 100 µM (inactive),–,–,–,–,–
COc1ccc2c(c1)CC1NC2Cc2ccccc21 (stereo not given),–,> 100 µM (inactive),> 100 µM (inactive),> 100 µM (inactive),> 100 µM (inactive),> 100 µM (inactive),> 100 µM (inactive),> 100 µM (inactive),> 100,> 100 µM (inactive),> 100 µM (inactive),> 100 µM (inactive),> 100 µM (inactive),> 100 µM (inactive),> 100 µM (inactive),–,–,–,–,–
N=C(N)NNC(=O)CCCCCCCC(=O)NNC(=N)N,> 100 µM (inactive),33.9 µM (inactive),62.7 µM (inactive),18.3 µM (inactive),> 100 µM (inactive),> 100 µM (inactive),–,> 100 µM (inactive),17.9,> 100 µM (inactive),> 100 µM (inactive),> 100 µM (inactive),10.4 µM (inactive),> 100 µM (inactive),> 100 µM (inactive),–,–,–,–,–
CCOC(=O)C1=C(C)NC(=O)NC1c1ccc(OC)cc1OC (stereo not given),> 100 µM (inactive),–,> 100 µM (inactive),> 100 µM (inactive),> 100 µM (inactive),–,> 100 µM (inactive),> 100 µM (inactive),> 100,> 100 µM (inactive),> 100 µM (inactive),> 100 µM (inactive),> 100 µM (inactive),52.6 µM (inactive),> 100 µM (inactive),–,–,–,–,–
COc1cc(/C=C2\CCC(C)C3C2=NN(C(C)=O)C3c2cc(OC)c(OC)c(OC)c2)cc(OC)c1OC (stereo not given),> 100 µM (inactive),> 100 µM (inactive),–,> 100 µM (inactive),> 59.8 µM (inactive),6.93 µM (inactive),> 100 µM (inactive),> 100 µM (inactive),99.8,> 100 µM (inactive),> 33 µM (inactive),14.2 µM (inactive),> 100 µM (inactive),> 85.5 µM (inactive),> 100 µM (inactive),> 100 µM (inactive),45.8 µM (inactive),9.86 µM (inactive),> 77.6 µM (inactive),> 72.9 µM (inactive)
O=C1C=CC(=O)c2nc3c(cc21)CCC3,15.3 µM (inactive),15.7 µM (inactive),18.3 µM (inactive),14.5 µM (inactive),19.6 µM (inactive),25.6 µM (inactive),11.6 µM (inactive),> 100 µM (inactive),–,32.7 µM (inactive),> 100 µM (inactive),17 µM (inactive),16.6 µM (inactive),78.5 µM (inactive),–,–,–,–,–,–
c1ccc2c(c1)CCc1c(-c3n[nH]c4c3CCc3ccccc3-4)n[nH]c1-2,> 100 µM (inactive),–,> 100 µM (inactive),> 100 µM (inactive),> 100 µM (inactive),> 100 µM (inactive),87.9 µM (inactive),> 100 µM (inactive),> 100,> 100 µM (inactive),> 100 µM (inactive),> 100 µM (inactive),> 100 µM (inactive),> 100 µM (inactive),> 100 µM (inactive),–,–,–,–,–
CCC1=CC2CN3Cn4c(c(COCc5c6n(c7ccccc57)CN5CC7C=C(CC)C5C6(C(=O)OC)C7)c5ccccc54)C(C(=O)OC)(C2)C13,> 100 µM (inactive),> 100 µM (inactive),> 100 µM (inactive),> 100 µM (inactive),> 100 µM (inactive),> 100 µM (inactive),> 100 µM (inactive),–,> 100,> 100 µM (inactive),> 100 µM (inactive),> 100 µM (inactive),> 100 µM (inactive),> 100 µM (inactive),> 100 µM (inactive),–,–,–,–,–
Brc1cccc(C2SCc3nc4ccccc4n32)c1 (stereo not given),14.6 µM (inactive),19 µM (inactive),13.7 µM (inactive),19.1 µM (inactive),–,17.1 µM (inactive),22.6 µM (inactive),–,15.2,23.6 µM (inactive),16.1 µM (inactive),30.2 µM (inactive),31.8 µM (inactive),17 µM (inactive),18.7 µM (inactive),–,–,–,–,–
[O-][S+]1Nc2c(Cl)cc(Cl)c3c(Cl)cc(Cl)c(c23)N1,32.8 µM (inactive),25.6 µM (inactive),36.3 µM (inactive),> 100 µM (inactive),54.7 µM (inactive),62.8 µM (inactive),22.6 µM (inactive),28.4 µM (inactive),32.1,–,44.6 µM (inactive),32.4 µM (inactive),37.2 µM (inactive),28.2 µM (inactive),59.7 µM (inactive),–,–,–,–,–
COc1cc(Cl)c2c3c(c(C(C)=O)oc13)CCC2,> 100 µM (inactive),> 100 µM (inactive),> 100 µM (inactive),> 100 µM (inactive),> 100 µM (inactive),> 100 µM (inactive),–,> 100 µM (inactive),> 100,> 100 µM (inactive),–,> 100 µM (inactive),> 100 µM (inactive),> 100 µM (inactive),> 100 µM (inactive),–,–,–,–,–
CCCc1c2c([nH]c(=O)c1C)C(=O)c1[nH]c(=O)c(C)c(CCC)c1C2=O,8.11 µM (inactive),12.2 µM (inactive),2.51 µM (inactive),25.8 µM (inactive),2.84 µM (inactive),23.6 µM (inactive),3.93 µM (inactive),38.4 µM (inactive),11.2,14.5 µM (inactive),–,–,4.78 µM (inactive),–,–,–,–,–,–,–
O=C(/C=C/c1ccc[nH]1)c1ccccc1,> 100 µM (inactive),> 100 µM (inactive),> 100 µM (inactive),> 100 µM (inactive),> 100 µM (inactive),> 100 µM (inactive),> 100 µM (inactive),–,> 100,> 100 µM (inactive),> 100 µM (inactive),> 100 µM (inactive),> 100 µM (inactive),> 100 µM (inactive),–,–,–,–,–,–
O=C(O)CCc1nc2ccccc2[nH]1 [PROCODAZOLE],> 100 µM (inactive),> 100 µM (inactive),–,> 100 µM (inactive),> 100 µM (inactive),> 100 µM (inactive),> 100 µM (inactive),> 100 µM (inactive),> 100,> 100 µM (inactive),> 100 µM (inactive),> 100 µM (inactive),> 100 µM (inactive),> 100 µM (inactive),> 100 µM (inactive),> 100 µM (inactive),> 100 µM (inactive),> 100 µM (inactive),> 100 µM (inactive),> 100 µM (inactive)
